From article PMC7562955 (Nature Communications, 2020)

Tests used:
TLR7 [1] = assay: Glutaraldehyde crosslinking assay of ligand-induced TLR7 dimerization; assay type: biochemical, Monkey (Macaca mulatta); settings: for ligand-induced TLR7 dimerization: neutral or acidic pH
Protocol: The recombinant TLR7 proteins expressed in Drosophila S2 cells (Thermo Fisher Scientific) using Monkey (Macaca mulatta) TLR7 extracellular domain expression construct with N167Q, N399Q, N488Q and N799Q mutations and cleavable Z-loop and C-terminal protein A tag were prepared and were stored in a buffer containing 10 mM Tris-HCl pH 7.5 and 150 mM NaCl at concentrations of 10–15 mg ml^−1. Briefly, the purification steps included IgG affinity purification, the Z-loop and the protein A tag cleavage, and gel-filtration chromatography. Glycan-trimmed TLR7 proteins, expressed in the presence of 1.5 mg l^−1 kifunensine (Glycosyn) and treated by Endo Hf (New England Biolabs) were used for crystallization. Glycan-untrimmed proteins were used in ITC analysis, crosslinking assay, negative-staining EM and cryo-EM (200 kV microscopes) analyses. Glycan-trimmed TLR7 proteins with partially-uncleaved protein A tag were used for cryo-EM analysis using Tatan Krios (Supplementary Fig. 11).
For glutaraldehyde crosslinking assay (Fig. 2b), proteins were buffer exchanged into a buffer containing 10 mM HEPES-NaOH, pH 8.0, 150 mM NaCl and were concentrated to ~13 mg/ml using Amicon Ultra devices (Merck). Protein concentrations were adjusted to 25 µM using buffers containing 10 mM HEPES-NaOH, pH 7.0, 150 mM NaCl (for neutral condition) or 50 mM citrate-NaOH pH 5.0, 150 mM NaCl (for acidic condition). Cpd-3, Cpd-6 or Cpd-7 were added to final concentrations of 100 or 1000 µM. The reactions were started by adding glutaraldehyde (Wako) to a final concentration of 5 mM (for neutral condition) or 20 mM (for acidic condition), incubated at ambient temperature for 25 min and quenched by adding Tris-HCl pH 7.5 to a final concentration of 100 mM. Crosslinked samples were analyzed by non-reducing SDS-PAGE. Quantitative analysis of the SDS-PAGE gel image was performed with Image-J.

TLR7 [2] = target: T1, TLR7 (Homo sapiens, UniProt Q9NYK1); assay: TLR7 inhibition assay in primary human PBMCs (R848-induced IFN-α, ELISA); assay type: cell-based; design: Human Peripheral Blood Mononuclear cells (hPBMCs) were collected from healthy adult donors; endogenous in cells; host or cells: primary human PBMCs (plasmacytoid DCs produce the IFN-α); settings: for R848-induced IFN-α production: 2.5 μM; for Mean IFN-α / IFN-α: antagonist 2.5 μM; for Mean IFN-α: n = 3; for IFN-α: single replicate
T1 sequence (Q9NYK1 27-1049): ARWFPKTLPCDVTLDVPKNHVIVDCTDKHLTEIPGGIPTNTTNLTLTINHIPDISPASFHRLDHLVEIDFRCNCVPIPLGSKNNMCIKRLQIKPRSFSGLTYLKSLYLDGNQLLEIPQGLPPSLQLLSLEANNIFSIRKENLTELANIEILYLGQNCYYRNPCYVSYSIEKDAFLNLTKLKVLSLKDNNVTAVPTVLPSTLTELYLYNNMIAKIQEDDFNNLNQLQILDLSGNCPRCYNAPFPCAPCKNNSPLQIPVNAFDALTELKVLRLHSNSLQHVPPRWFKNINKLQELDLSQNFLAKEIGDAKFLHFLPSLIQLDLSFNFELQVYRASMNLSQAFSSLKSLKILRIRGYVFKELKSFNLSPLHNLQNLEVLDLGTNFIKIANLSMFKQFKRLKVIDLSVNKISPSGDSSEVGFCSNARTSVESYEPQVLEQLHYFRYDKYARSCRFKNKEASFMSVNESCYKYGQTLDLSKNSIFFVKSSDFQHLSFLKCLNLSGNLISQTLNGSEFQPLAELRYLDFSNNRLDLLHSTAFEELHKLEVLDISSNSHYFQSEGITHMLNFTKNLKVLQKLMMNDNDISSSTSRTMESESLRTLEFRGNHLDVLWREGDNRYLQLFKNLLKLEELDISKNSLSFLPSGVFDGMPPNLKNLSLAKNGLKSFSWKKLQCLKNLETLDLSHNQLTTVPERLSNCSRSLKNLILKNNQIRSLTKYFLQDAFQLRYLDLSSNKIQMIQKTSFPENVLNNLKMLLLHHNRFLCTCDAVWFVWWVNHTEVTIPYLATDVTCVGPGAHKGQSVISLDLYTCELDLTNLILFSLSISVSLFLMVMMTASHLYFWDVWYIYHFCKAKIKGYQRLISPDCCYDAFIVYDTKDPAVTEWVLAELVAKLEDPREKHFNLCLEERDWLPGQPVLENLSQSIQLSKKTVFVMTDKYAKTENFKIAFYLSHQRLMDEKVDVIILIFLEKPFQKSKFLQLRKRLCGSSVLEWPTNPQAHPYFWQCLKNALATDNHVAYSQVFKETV
Protocol: Human Peripheral Blood Mononuclear cells (hPBMCs) were collected from healthy adult donors. hPBMCs were cultured in round-bottom 96-well plates (BD Falcon, Durham, NC, USA) with a density of 5 × 10^5 cells/well. Plated cells were pretreated with DMSO or 2.5 μM inhibitors for 3 h and then stimulated by indicated ligands, such as R848 or TLR1/2 specific ligand Pam3CSK4 (Invivogen, HongKong, China), for 20 h in […] of RPMI 1640 medium (Gibco, Paisley, UK) supplemented with 10% FBS, Penicillin-Streptomycin-Glutamine (Gibco, Paisley, UK), 50 μM 2-ME medium at 37 °C in the presence of 5% CO2. Supernatants were collected to measure secreted cytokines by ELISA. Concentration of human IFN-α and TNF-α in the supernatants was measured with Verikine Human IFN-α Multi-Subtype Serum ELISA Kit (PBL Assay Science, Piscataway, NJ, USA) and Human TNF-α Uncoated ELISA (ThermoFisher Scientific, Carlsbad, CA, USA), respectively. This study was approved by the Research Ethics Committee of IMSUT (accession number: 30-100-B20190419).

[3] = pH 5.0, ligand + (100 or 1000 µM used)
[4] = pH 5.0, ligand ++ (100 or 1000 µM used)
[5] = pH 7.0, ligand + (100 or 1000 µM used)
[6] = pH 7.0, ligand ++ (100 or 1000 µM used)

Structure (SMILES)	ligand-induced TLR7 dimerization (TLR7 [1])	Band intensity Dimer (TLR7 [1]; [3])	Band intensity Monomer (TLR7 [1]; [3])	Band intensity Dimer (TLR7 [1]; [4])	Band intensity Monomer (TLR7 [1]; [4])	Band intensity Dimer (TLR7 [1]; [5])	Band intensity Monomer (TLR7 [1]; [5])	Band intensity Dimer (TLR7 [1]; [6])	Band intensity Monomer (TLR7 [1]; [6])	R848-induced IFN-α production (TLR7 [2])	Mean IFN-α (TLR7 [2]; activator None)	IFN-α (TLR7 [2]; activator None)	Mean IFN-α (TLR7 [2]; activator R848 (200 nM))	IFN-α (TLR7 [2]; activator R848 (200 nM))
CCOc1nc(N)c2nc(-c3cncc(F)c3)n(Cc3ccc(CN4C[C@@H]5C[C@H]4CN5C)cc3)c2n1 [Cpd-6]	increased only in acidic conditions	8170.97	16240	8032.26	12976	10536.9	14418	14285.1	11832.4	completely blocked	0 pg/mL	0 pg/mL	0 pg/mL	0 pg/mL
CCOc1nc(C)c2nc(-c3cncc(F)c3)n(Cc3ccc(CN4C[C@@H]5C[C@H]4CN5C)cc3)c2n1 [Cpd-7]	increased only in acidic conditions	8301.55	16518.6	8600.5	15510.2	9334.79	16326.2	12602.5	14640.4	completely blocked	0 pg/mL	0 pg/mL	0 pg/mL	0 pg/mL
